For the data set, the system named is patients with allergic rhinitis. Put plainly: Clinical application trial for treatment of allergic rhinitis. It is filed as in vivo, human. As to the method:
1. Clinical data: 60 cases (a total number) of outpatients and inpatients with allergic rhinitis were enrolled, and were randomly divided into a treatment group with 30 patients and a control group with 30 patients.
2. Diagnosis criteria: 2 or more clinical symptoms such as sneezing, clear water-like nasal discharge, nasal congestion, and nasal itching, appearing continuously or continually for 1 hour or more every day. It may be accompanied by eye symptoms such as eye itching and conjunctival hyperemia. Common signs often include pale nasal mucosa, edema, and watery nasal discharge. Positive in the allergen skin prick test.
3. […] The patients in the control group orally took loratadine 10 mg per time, once day, for 30 days.
4. […] Total effective rate=cured rate+effective rate.

The values below come from US20220000894A1, “Substance for treatment or prevention of diseases, method for designing the same, and method for preparing the same” (priority 2018, published 2022).

Regarding `CCOC(=O)N1CCC(=C2c3ccc(Cl)cc3CCc3cccnc32)CC1` [loratadine], the recurrence after treatment result (6-month follow-up / after drug discontinuance) is “allergic symptoms appeared after contact with allergens after drug discontinuance”. Under “30 patients per group”, the “Effective (number of patients)” value worked out at 20, the “Ineffective (number of patients)” value was 10 and the “Total effective rate (%) (cured rate + effective rate)” value was 66.67%. Further, for the setting “30 patients per group, cured = symptoms and signs disappear for 60 days without recurrence”, the “Cured (number of patients)” value amounted to 0. Besides, the adverse reactions occurred (control group of 30 patients) worked out at 5 cases.
